Laboratory results as given in patent US20230072683A1, “PYRIDO-PYRIMIDIN DERIVATIVES AND PHARMACEUTICAL COMPOSITION, FOR USE IN PREVENTING OR TREATING PI3 KINASE RELATED DISEASES, COMPRISING SAME AS ACTIVE INGREDIENT” (BORYUNG PHARMACEUTICAL CO., LTD, priority 2019, published 2023).

Columns and labels:
[1] = molecular target: PI3K-δ (PI3K(p1108/p857) (h)) (Homo sapiens, UniProt O00329); assay: Evaluation of inhibitory activity against PI3K-δ (HTRF kinase assay); format: biochemical; conditions: compound concentration 0.01 μM; read-out: EXP_VALUE(% Inhibition) PI3K-δ 0.01 μM
In short: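 HTRF read-out (665/620 nm ratio ×10000) used Eu-labelled anti-GST, GST-tagged GRP1 PH domain and streptavidin-allophycocyanin after EDTA/PIP3 stop.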

DNA-PK(h) = DNA-PK(h) (Homo sapiens, UniProt P78527); assay: Evaluation of inhibitory activity against DNA-PK (HTRF kinase assay, GST-cMyc-p53 substrate); format: biochemical; conditions: compound concentration 0.01 μM; read-out: EXP_VALUE(% Inhibition) DNA-PK(h) 0.01 μM
In short: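 p53 Ser15 phosphorylation by human DNA-PK was measured by time-resolved FRET ratio (665/620 nm ×10000) using Eu-labelled anti-phospho-Ser15 and d2 anti-GST antibodies. Substrate GST-cMyc-p53 at 50 μM; Mg/ATP-initiated, 30 min at room temperature, EDTA stop.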

Chain of PI3K-δ (PI3K(p1108/p857) (h)) (O00329 whole entry, the tested form may be a part): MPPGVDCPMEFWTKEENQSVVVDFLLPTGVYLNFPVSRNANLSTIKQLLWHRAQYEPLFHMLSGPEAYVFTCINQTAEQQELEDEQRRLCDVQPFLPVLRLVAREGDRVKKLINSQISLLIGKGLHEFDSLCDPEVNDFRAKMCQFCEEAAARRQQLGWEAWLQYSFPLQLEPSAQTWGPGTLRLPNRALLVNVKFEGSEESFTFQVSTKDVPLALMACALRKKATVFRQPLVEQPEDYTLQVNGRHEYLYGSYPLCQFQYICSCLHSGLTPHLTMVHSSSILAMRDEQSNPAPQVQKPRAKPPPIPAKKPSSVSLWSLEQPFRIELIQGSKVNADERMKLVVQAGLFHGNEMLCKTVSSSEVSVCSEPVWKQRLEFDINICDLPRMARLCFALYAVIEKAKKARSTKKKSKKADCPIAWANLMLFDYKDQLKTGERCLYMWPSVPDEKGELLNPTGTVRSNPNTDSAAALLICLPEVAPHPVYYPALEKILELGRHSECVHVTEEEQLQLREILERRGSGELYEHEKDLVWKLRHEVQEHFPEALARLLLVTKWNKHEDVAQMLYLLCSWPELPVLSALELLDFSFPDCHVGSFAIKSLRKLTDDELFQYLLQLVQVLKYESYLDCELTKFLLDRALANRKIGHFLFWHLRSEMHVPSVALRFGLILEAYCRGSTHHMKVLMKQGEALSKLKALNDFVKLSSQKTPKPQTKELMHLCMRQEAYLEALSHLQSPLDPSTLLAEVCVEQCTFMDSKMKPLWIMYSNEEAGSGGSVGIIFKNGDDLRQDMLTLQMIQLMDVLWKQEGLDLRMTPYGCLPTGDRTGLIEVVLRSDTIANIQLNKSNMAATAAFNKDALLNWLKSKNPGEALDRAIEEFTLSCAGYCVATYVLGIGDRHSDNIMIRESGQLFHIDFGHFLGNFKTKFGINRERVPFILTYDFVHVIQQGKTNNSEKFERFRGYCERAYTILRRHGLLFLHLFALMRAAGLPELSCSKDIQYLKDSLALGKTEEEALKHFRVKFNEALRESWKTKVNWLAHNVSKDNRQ
Chain of PI3K-δ (PI3K(p1108/p857) (h)) (P27986 whole entry partner, the tested form may be a part): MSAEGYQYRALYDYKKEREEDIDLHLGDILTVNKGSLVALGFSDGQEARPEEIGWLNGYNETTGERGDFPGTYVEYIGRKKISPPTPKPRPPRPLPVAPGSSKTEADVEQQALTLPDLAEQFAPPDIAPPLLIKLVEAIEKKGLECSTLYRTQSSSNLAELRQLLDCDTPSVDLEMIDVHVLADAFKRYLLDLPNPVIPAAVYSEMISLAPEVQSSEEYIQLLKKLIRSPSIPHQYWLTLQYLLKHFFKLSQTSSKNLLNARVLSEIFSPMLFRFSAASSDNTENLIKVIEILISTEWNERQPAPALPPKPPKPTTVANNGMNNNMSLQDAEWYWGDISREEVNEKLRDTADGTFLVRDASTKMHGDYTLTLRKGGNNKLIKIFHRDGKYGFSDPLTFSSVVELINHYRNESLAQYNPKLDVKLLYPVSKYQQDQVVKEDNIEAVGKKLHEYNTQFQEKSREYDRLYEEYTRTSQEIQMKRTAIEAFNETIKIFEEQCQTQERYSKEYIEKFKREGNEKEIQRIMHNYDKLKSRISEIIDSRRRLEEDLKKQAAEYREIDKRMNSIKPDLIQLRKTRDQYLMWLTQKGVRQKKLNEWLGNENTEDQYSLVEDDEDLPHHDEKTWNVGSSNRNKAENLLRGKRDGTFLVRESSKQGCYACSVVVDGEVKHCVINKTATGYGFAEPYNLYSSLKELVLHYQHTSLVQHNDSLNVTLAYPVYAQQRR

| inhibition at 0.01 µM [1] | inhibition at 0.01 µM (DNA-PK(h)) | SMILES |
| --- | --- | --- |
| 76% | 41% | CCOc1cnc(-c2cccc3c(Cl)c([C@H](C)Nc4ncnc5[nH]ccc(=O)c45)n(-c4ccccc4)c(=O)c23)cn1 [Example 230, (S)-4-((1-(4-chloro-8-(5-ethoxypyrazin-2-yl)-1-oxo-2-phenyl-1,2-dihydroisoquinolin-3-yl)ethyl)amino)pyrido[2,3-d]pyrimidin-5(8H)-one] |
| 44% | 67% | C[C@H](Nc1ncnc2[nH]ccc(=O)c12)c1c(Cl)c2cccc(-c3ccc(CN4CCOCC4)cc3F)c2c(=O)n1-c1ccccc1 [Example 231, (S)-4-((1-(4-chloro-8-(2-fluoro-4-(morpholinomethyl)phenyl)-1-oxo-2-phenyl-1,2-dihydroisoquinolin-3-yl)ethyl)amino)pyrido[2,3-d]pyrimidin-5(8H)-one] |
| 23% | 15% | COc1ncc(-c2cccc3c(Cl)c([C@H](C)Nc4ncnc5[nH]ccc(=O)c45)n(-c4ccccc4)c(=O)c23)cc1NS(=O)(=O)c1ccc(F)cc1F [Example 232, (S)—N-(5-(4-chloro-1-oxo-3-(1-((5-oxo-5,8-dihydropyrido[2,3-d]pyrimidin-4-yl)amino)ethyl)-2-phenyl-1,2-dihydroisoquinolin-8-yl)-2-methoxypyridin-3-yl)-2,4-difluorobenzenesulfonamide] |
| 77% | 60% | C[C@H](Nc1ncnc2[nH]ccc(=O)c12)c1c(Cl)c2cccc(-c3ccc4nsnc4c3)c2c(=O)n1-c1ccccc1 [Example 233, (S)-4-((1-(8-(benzo[c][1,2,5]thiadiazol-5-yl)-4-chloro-1-oxo-2-phenyl-1,2-dihydroisoquinolin-3-yl)ethyl)amino)pyrido[2,3-d]pyrimidin-5(8H)-one] |
| 85% | 50% | Cc1cc(-c2cccc3c(Cl)c([C@H](C)Nc4ncnc5[nH]ccc(=O)c45)n(-c4ccccc4)c(=O)c23)n[nH]1 [Example 234, (S)-4-((1-(4-chloro-8-(5-methyl-1H-pyrazol-3-yl)-1-oxo-2-phenyl-1,2-dihydroisoquinolin-3-yl)ethyl)amino)pyrido[2,3-d]pyrimidin-5(8H)-one] |
| 80% | 46% | C[C@H](Nc1ncnc2[nH]ccc(=O)c12)c1c(Cl)c2cccc(-c3cnc4nonc4c3)c2c(=O)n1-c1ccccc1 [Example 235, (S)-4-((1-(8-([1,2,5]oxadiazolo[3,4-b]pyridin-6-yl)-4-chloro-1-oxo-2-phenyl-1,2-dihydroisoquinolin-3-yl)ethyl)amino)pyrido[2,3-d]pyrimidin-5(8H)-one] |
| 79% | 46% | C[C@H](Nc1ncnc2[nH]ccc(=O)c12)c1c(Cl)c2cccc(-c3ccc4[nH]ncc4c3)c2c(=O)n1-c1ccccc1 [Example 236, (S)-4-((1-(4-chloro-8-(1H-indazol-5-yl)-1-oxo-2-phenyl-1,2-dihydroisoquinolin-3-yl)ethyl)amino)pyrido[2,3-d]pyrimidin-5(8H)-one] |
| 85% | 29% | C[C@H](Nc1ncnc2[nH]ccc(=O)c12)c1c(Cl)c2cccc(-c3cccc4c3cnn4C)c2c(=O)n1-c1ccccc1 [Example 237, (S)-4-((1-(4-chloro-8-(1-methyl-1H-indazol-4-yl)-1-oxo-2-phenyl-1,2-dihydroisoquinolin-3-yl)ethyl)amino)pyrido[2,3-d]pyrimidin-5(8H)-one] |
| 15% | 15% | C[C@H](Nc1ncnc2[nH]ccc(=O)c12)c1c(Cl)c2cccc(-c3cnoc3)c2c(=O)n1-c1ccccc1 [Example 238, (S)-4-((1-(4-chloro-8-(isoxazol-4-yl)-1-oxo-2-phenyl-1,2-dihydroisoquinolin-3-yl)ethyl)amino)pyrido[2,3-d]pyrimidin-5(8H)-one] |
| 38% | 10% | C[C@H](Nc1ncnc2[nH]ccc(=O)c12)c1c(Cl)c2cccc(-c3cccc4cn[nH]c34)c2c(=O)n1-c1ccccc1 [Example 239, (S)-4-((1-(4-chloro-8-(1H-indazol-7-yl)-1-oxo-2-phenyl-1,2-dihydroisoquinolin-3-yl)ethyl)amino)pyrido[2,3-d]pyrimidin-5(8H)-one] |
| 61% | 22% | C[C@H](Nc1ncnc2[nH]ccc(=O)c12)c1c(Cl)c2cccc(-c3ccc4nonc4c3)c2c(=O)n1-c1ccccc1 [Example 240, (S)-4-((1-(8-(benzo[c][1,2,5]oxadiazol-5-yl)-4-chloro-1-oxo-2-phenyl-1,2-dihydroisoquinolin-3-yl)ethyl)amino)pyrido[2,3-d]pyrimidin-5(8H)-one] |
| 32% | 49% | C[C@H](Nc1ncnc2[nH]ccc(=O)c12)c1c(Cl)c2cccc(-c3ccc4ocnc4c3)c2c(=O)n1-c1ccccc1 [Example 241, (S)-4-((1-(8-(benzo[d]oxazol-5-yl)-4-chloro-1-oxo-2-phenyl-1,2-dihydroisoquinolin-3-yl)ethyl)amino)pyrido[2,3-d]pyrimidin-5(8H)-one] |
| 69% | 65% | Cc1csc(-c2cccc3c(Cl)c([C@H](C)Nc4ncnc5[nH]ccc(=O)c45)n(-c4ccccc4)c(=O)c23)c1 [Example 242, (S)-4-((1-(4-chloro-8-(4-methylthiophen-2-yl)-1-oxo-2-phenyl-1,2-dihydroisoquinolin-3-yl)ethyl)amino)pyrido[2,3-d]pyrimidin-5(8H)-one] |
| 45% | 32% | Cc1ccsc1-c1cccc2c(Cl)c([C@H](C)Nc3ncnc4[nH]ccc(=O)c34)n(-c3ccccc3)c(=O)c12 [Example 243, (S)-4-((1-(4-chloro-8-(3-methylthiophen-2-yl)-1-oxo-2-phenyl-1,2-dihydroisoquinolin-3-yl)ethyl)amino)pyrido[2,3-d]pyrimidin-5(8H)-one] |
| 65% | 7% | Cc1c[nH]nc1-c1cccc2c(Cl)c([C@H](C)Nc3ncnc4[nH]ccc(=O)c34)n(-c3ccccc3)c(=O)c12 [Example 244, (S)-4-((1-(4-chloro-8-(4-methyl-1H-pyrazol-3-yl)-1-oxo-2-phenyl-1,2-dihydroisoquinolin-3-yl)ethyl)amino)pyrido[2,3-d]pyrimidin-5(8H)-one] |
| 52% | 43% | C[C@H](Nc1ncnc2[nH]ccc(=O)c12)c1c(Cl)c2cccc(CN3CCOCC3)c2c(=O)n1-c1ccccc1 [Example 245, (S)-4-((1-(4-chloro-8-(morpholinomethyl)-1-oxo-2-phenyl-1,2-dihydroisoquinolin-3-yl)ethyl)amino)pyrido[2,3-d]pyrimidin-5(8H)-one] |
| 85% | 79% | CNc1ccc(-c2cccc3c(Cl)c([C@H](C)Nc4ncnc5[nH]ccc(=O)c45)n(-c4ccccc4)c(=O)c23)cn1 [Example 246, (S)-4-((1-(4-chloro-8-(6-(methylamino)pyridin-3-yl)-1-oxo-2-phenyl-1,2-dihydroisoquinolin-3-yl)ethyl)amino)pyrido[2,3-d]pyrimidin-5(8H)-one] |
| 75% | 21% | C[C@H](Nc1ncnc2[nH]ccc(=O)c12)c1c(Cl)c2cccc(-c3ccc(OC(F)(F)F)cc3)c2c(=O)n1-c1ccccc1 [Example 247, (S)-4-((1-(4-chloro-1-oxo-2-phenyl-8-(4-(trifluoromethoxy)phenyl)-1,2-dihydroisoquinolin-3-yl)ethyl)amino)pyrido[2,3-d]pyrimidin-5(8H)-one] |
